According to the NIST ThermoML archive (doi:10.1007/s10765-007-0151-9):
Several values for one entry are separate records, joined by “and”; a condition that tells them apart may be missing. Equal entries are not always repeated. ± gives the expanded uncertainty stated by the source.

Conditions: 101.33 kPa, Liquid, Pulse-echo method

[Pb] [lead]
Conditions	speed of sound [m/s]
610 K	1834 ± 30
626 K	1810.5 ± 30
678 K	1790.3 ± 29
703 K	1784 ± 29
787 K	1769.8 ± 29
814 K	1749 ± 29
897 K	1729.8 ± 28
1078 K	1688 ± 28

[Sn] [tin]
Conditions	speed of sound [m/s]
608 K	2470 ± 41
804 K	2408 ± 40
814 K	2416 ± 40
919 K	2379 ± 39
1012 K	2366 ± 39
1025 K	2332 ± 38
1218 K	2306 ± 38
1453 K	2234 ± 37
1463 K	2242 ± 37

[Ge] [germanium]
Conditions	speed of sound
1216 K	2690.9 ± 44 m/s and 2689.9 ± 44 m/s
1233 K	2690.8 ± 44 m/s and 2691.1 ± 44 m/s
1252 K	2689.5 ± 44 m/s and 2696.2 ± 44 m/s
1270 K	2692 ± 44 m/s and 2695 ± 44 m/s
1289 K	2690.8 ± 44 m/s and 2700.4 ± 44 m/s
1307 K	2690.6 ± 44 m/s and 2695 ± 44 m/s
1352 K	2673.6 ± 44 m/s and 2678.4 ± 44 m/s
1398 K	2662.8 ± 44 m/s and 2666.3 ± 44 m/s
1443 K	2652.5 ± 44 m/s and 2654.4 ± 44 m/s

[Si] [silicon]
Conditions	speed of sound [m/s]
1723 K	3916.1 ± 64
1748 K	3929 ± 64
1755 K	3945.9 ± 65
1789 K	3973.3 ± 65
1795 K	3969 ± 65
1823 K	3976.3 ± 65
1852 K	4003 ± 66
1889 K	4020 ± 66
